Biological target: T1, human TRPV3 (Homo sapiens, UniProt Q8NET8)
T1 construct: expressed in transfected cells
T1 sequence (Q8NET8 1-790): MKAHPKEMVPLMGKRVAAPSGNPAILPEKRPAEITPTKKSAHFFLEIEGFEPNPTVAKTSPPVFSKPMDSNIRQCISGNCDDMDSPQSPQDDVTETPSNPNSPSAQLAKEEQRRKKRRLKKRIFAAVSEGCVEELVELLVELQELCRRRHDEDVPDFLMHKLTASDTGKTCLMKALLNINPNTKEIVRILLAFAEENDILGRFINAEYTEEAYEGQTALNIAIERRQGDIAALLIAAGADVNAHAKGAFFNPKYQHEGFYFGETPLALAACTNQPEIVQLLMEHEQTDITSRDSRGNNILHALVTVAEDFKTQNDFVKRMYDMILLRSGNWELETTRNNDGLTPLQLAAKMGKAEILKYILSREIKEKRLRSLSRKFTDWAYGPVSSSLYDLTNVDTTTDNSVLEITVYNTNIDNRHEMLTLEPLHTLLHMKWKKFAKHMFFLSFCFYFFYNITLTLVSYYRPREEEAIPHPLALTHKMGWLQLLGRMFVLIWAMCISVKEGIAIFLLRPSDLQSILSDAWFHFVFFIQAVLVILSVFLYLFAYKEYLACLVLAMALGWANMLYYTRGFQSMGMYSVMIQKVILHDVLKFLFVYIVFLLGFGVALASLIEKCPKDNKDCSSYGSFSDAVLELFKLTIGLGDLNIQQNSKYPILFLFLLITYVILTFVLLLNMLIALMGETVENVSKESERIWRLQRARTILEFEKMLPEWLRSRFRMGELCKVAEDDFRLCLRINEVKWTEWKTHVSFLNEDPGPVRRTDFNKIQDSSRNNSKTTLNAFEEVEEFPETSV
Experiment: Calcium flux assay (FLIPR TETRA), inhibition of 2-APB response
Format: cell-based
Details: recombinant HEK293 cells stably expressing human TRPV3; 2-APB at its EC50
Method: (i) In Vitro Methods-Calcium Flux Assays:
Experiments were conducted using the FLIPR^TETRA®. On the day prior to the experiment, recombinant HEK293 cells that stably express human and mouse TRPV3 were removed from tissue culture flasks and plated in growth medium at 20,000 cells/well into black-walled clear-bottom 384-well Biocoat™ poly-D-lysine assay plates (BD Biosciences, Bedford, Mass.) using a Multidrop® dispenser (ThermoScientific, Waltham, Mass.). On the day of the experiment, growth medium was removed, and the no-wash FLIPR® Calcium-4 dye (λEX=470-495 nm, λEM=515-575 nm; Molecular Devices, Sunnyvale, Calif.) was added to each well using the Multidrop® dispenser. Cells were incubated for 90-120 minutes in the dark. Compounds were dissolved in DMSO to prepare a 10 mM stock solution. The intensity of the fluorescence was captured and digitally transferred to an interfaced PC. The peak increase in fluorescence over baseline (relative fluorescence units) was calculated and expressed as the percentage of the maximal 2-APB (2-aminoethoxyldiphenyl borate) response (in the absence of compound).

Row | Compound | IC50 [µM]
1 | OC(c1ccccn1)C1(c2cc(F)cc(C(F)(F)F)c2)CCC1 (centres unmarked) [Example 14, {1-[3-fluoro-5-(trifluoromethyl)phenyl]cyclobutyl}(pyridin-2-yl)methanol] | 5.1 to 20
2 | CS(=O)(=O)c1ccc(C2(C(O)c3ccccn3)CCC2)cc1 (centres unmarked) [Example 16, {1-[4-(methylsulfonyl)phenyl]cyclobutyl}(pyridin-2-yl)methanol] | 5.1 to 20
3 | OC(c1ccccn1)C1(c2ccc(C(F)(F)F)c(F)c2)CCC1 (centres unmarked) [Example 17, {1-[3-fluoro-4-(trifluoromethyl)phenyl]cyclobutyl}(pyridin-2-yl)methanol] | 1.1 to 5
4 | OC(c1ccccn1)C1(c2ccccn2)CCC1 (centres unmarked) [Example 19, pyridin-2-yl(1-pyridin-2-ylcyclobutyl)methanol] | 5.1 to 20
5 | OC(c1ccccn1)C1(c2cccnc2)CCC1 (centres unmarked) [Example 20, pyridin-2-yl(1-pyridin-3-ylcyclobutyl)methanol] | 5.1 to 20
6 | OC(c1ccccn1)C1(c2ccncc2)CCC1 (centres unmarked) [Example 21, pyridin-2-yl(1-pyridin-4-ylcyclobutyl)methanol] | 5.1 to 20
7 | OC(c1ccccn1)C1(c2ccc(-c3ccccc3)cc2)CCC1 (centres unmarked) [Example 22, [1-(1,1′-biphenyl-4-yl)cyclobutyl](pyridin-2-yl)methanol] | 5.1 to 20
8 | O[C@H](c1ccccn1)C1(c2ccc(C(F)(F)F)cc2F)CCC1 [Example 27, (S)-{1-[2-fluoro-4-(trifluoromethyl)phenyl]cyclobutyl}(pyridin-2-yl)methanol] | 0.501 to 1
9 | OC(c1ncccn1)C1(c2ccccc2F)CCC1 (centres unmarked) [Example 32, [1-(2-fluorophenyl)cyclobutyl](pyrimidin-2-yl)methanol] | 5.1 to 20
10 | OC(c1ncccn1)C1(c2ccc(F)cc2)CCC1 (centres unmarked) [Example 34, [1-(4-fluorophenyl)cyclobutyl](pyrimidin-2-yl)methanol] | 5.1 to 20
11 | O[C@H](c1ncccn1)C1(c2ccc(C(F)(F)F)cc2)CCC1 [Example 41, (S)-pyrimidin-2-yl{1-[4-(trifluoromethyl)phenyl]cyclobutyl}methanol] | 5.1 to 20
12 | O[C@@H](c1ncccn1)C1(c2ccc(C(F)(F)F)cc2)CCC1 [Example 42, (R)-pyrimidin-2-yl{1-[4-(trifluoromethyl)phenyl]cyclobutyl}methanol] | 1.1 to 5
13 | CC(c1cccc(C(F)(F)F)c1)C1(C(O)c2ccccn2)CCC1 (centres unmarked) [Example 54, pyridin-2-yl(1-{1-[3-(trifluoromethyl)phenyl]ethyl}cyclobutyl)methanol] | 5.1 to 20
14 | [1-(4-methylbenzyl)cyclobutyl](pyridin-2-yl)methanol [Example 52] | 1.1 to 5

From patent publication US9156788B2, “TRPV3 modulators” (AbbVie Inc., priority 2010, dated 2015)
